# In paper PMC8231504, “A Biophysical Insight of Camptothecin Biodistribution: Towards a Molecular Understanding of Its Pharmacokinetic Issues” (Pharmaceutics, 2021):
# Read-outs that look alike come from different tables or passages of the source.
# Assays:
# [1] = set-up: method as in doi:10.1021/jp035260s; settings: DOPC, pH 7.4, fluorescence anisotropy; ref [47]; cited from earlier work
# [2] = set-up: method as in doi:10.1021/jp035260s; settings: DOPG, pH 7.4, fluorescence anisotropy; ref [47]; cited from earlier work
# [3] = Modelling biodistribution using in vitro parameters; set-up: species or system human; settings: for predicted off-target distribution / bioaccumulation: Equation (9)
# Experimental: (§1) The logD value obtained can be used with in silico descriptors to predict many biodistribution parameters using mathematical methods. As a result, the value of logD was used to predict CPT bioaccumulation (as expressed by the bioaccumulation constant, Kbioaccumulation), which is associated to tissue blood flow (Q) and its volume (V):(9) Kbioaccumulation=Q/V·logD
# (§2) To determine if the drug is stored in adipose tissue, the adipose store index (ASI) of CPT was calculated using the following equation [28]:(10) ASI=1.81·logD−logD+0.40
# (§3) Furthermore, the obtained distribution coefficient in the BPL model system—logD(BBB)—can be compared to logBB, according to Waterbeem and Kansy. The logarithm of the ratio of drug concentrations in brain and blood is known as logBB, and it represents the drug’s relative affinity variations between plasma proteins and brain tissue:(11) logBB=0.388·logDBBB−0.00618·Vm+1.359 where Vm is the membrane model system’s molar volume, determined from the individual lipid volumes.
# (§4) The steady-state volume distribution (VDSS) is one of the most useful PK criteria for describing a drug’s biodistribution. The effect of the PPB, permeability, partitioning, and active transport on the drug’s physiological distribution is translated by this predictor. Based on human clinical PK evidence of a wide set of drugs (670 drugs), the first physiological statistical model of VDSS for predicting the biodistribution of neutral and basic drugs was proposed:(12) VDSS=VP·(1+RE/L)+fu·VP(VE/VP−RE/L)+VR·fu/fut where VP and VE are the plasma and extracellular fluid volumes with corresponding value in human of […]; RE/I represents the ratio of extravascular and intravascular proteins, and is strictly referred to the distribution of albumin, assuming an approximate value of 1.4; VR is defined as the physical volume into which the drug distributes minus the extracellular space (0.380 L∙Kg^−1); fu and fut are, respectively, the unbound drug fraction in plasma and the unbound fraction in tissues.
# (§5) The fu values can be obtained by the following equation [33]:(13) fu=1−PPB/100 where PPB can be obtained from the in vitro values of Kbind:(14) PPB=100/1+1/CP·Kbind where CP is the physiological plasma protein concentration (750 μM).
# (§6) Lastly, fut can be obtained by the following equation [32]:(15) logfut=−0.0289−0.1739·logD−0.8324·fi(7.4)+1.0400·logfu where fi(7.4) is the fraction of ionized drug at pH 7.4 which has been calculated considering the pH hydrolysis and conversion of CPT from lactone neutral form to the anionic form carboxylate reported.
# HSA [4] = assay: as above; set-up: species or system human; settings: human, plasma proteins (calculated from in vitro Kbind to HSA); from Kbind to HSA, Equation (14); read-out: PPB (converted)
# Experimental: as §1, §2, §3, §4, §5, §6
# [5] = set-up: method as in PMID 22520977; settings: after 2 h in contact with human blood; ref [3]; cited from earlier work
# [6] = Literature in vivo steady-state volume of distribution; settings: human, converted from 190 ± 46 L·m^−2 with body surface 1.9 m^2 and body weight 70 kg, ref [71], read-out: in vivo VDSS
# [7] = Distribution coefficient in membrane/aqueous system, normal cell membrane model; assay type: physicochemical; settings: for LogD: normal cells membranes (DOPC, DOPE, DOPS, CHOL, SM)
# Source text: (§7) Single-lipid liposomal membrane models composed of DMPC, or lipid mixture liposomal membrane models mimetic of breast cancer cell membrane—DOPC (25%), CHOL (15%), EPC (31.8%), DOPS (17%), DOPE (8%), cardiolipin (2.5%) and SM (0.7%)—mimetic of cell membrane—[…], DOPE (20%), DOPS (20%), CHOL (10%), and SM (10%)—and, blood–brain barrier (BBB) membrane constituted by the BPL—phosphocholine (PC) (12.6%), phosphatidyl ethanolamine (PE) (33.1%), PI (4.1%), phosphatidyl serine (PS) (18.5%), and PA (0.8%) were prepared by the classical thin film hydration method. Briefly, lipids were co-dissolved in chloroform:methanol (8:2, v/v) and the solvents were evaporated under a stream of nitrogen in a rotary evaporator (Buchi R-200; Sigma-Aldrich Corp., Buchs, Switzerland). The resultant dried lipid film was hydrated with buffer at temperature of 40 ± 0.1 °C and lipid colloidal dispersions were formed by alternating vortex and thermostatic bath (40 ± 0.1 °C). […]
# (§8) The distribution coefficient (LogD) of CPT between membrane and aqueous buffered solution (pH 5.8 for breast cancer cell membrane model and pH 7.4 for cell membrane model and BBB membrane model) was determined by fluorescence spectroscopy and derivative UV-Vis spectroscopy. […] The samples contained a fixed concentration of CPT (2 × 10^−5M) and increasing concentrations of lipid suspension (0 to 1 × 10^−3 M for absorbance or 3 × 10^−3 M for fluorescence). […] The fluorescence spectra were also measured on a Perkin-Elmer LS-50B spectrofluorimeter. The emission spectra were obtained in 380–480 nm range with λexcitation = 250 nm and the excitation spectra were recorded in 220–400 nm range with λemission = 430 nm. […] The second and third derivative spectra of the absorbance UV-Vis spectra were determined to improve the resolution of spectral bands and to eliminate the spectral interferences due to light scattered by the lipid suspensions. […]
# (§9) Because CPT is a fluorescent compound with spectral variations due to its distribution between the lipid/aqueous phases (e.g., λ shifts), logD of CPT can also be calculated using fluorescence spectroscopy. […]
# HSA [8] = biological target: HSA (Homo sapiens, UniProt P02768); assay: Plasma protein binding by steady-state fluorescence quenching
# Chain of HSA (Homo sapiens, UniProt P02768) (P02768 25-609): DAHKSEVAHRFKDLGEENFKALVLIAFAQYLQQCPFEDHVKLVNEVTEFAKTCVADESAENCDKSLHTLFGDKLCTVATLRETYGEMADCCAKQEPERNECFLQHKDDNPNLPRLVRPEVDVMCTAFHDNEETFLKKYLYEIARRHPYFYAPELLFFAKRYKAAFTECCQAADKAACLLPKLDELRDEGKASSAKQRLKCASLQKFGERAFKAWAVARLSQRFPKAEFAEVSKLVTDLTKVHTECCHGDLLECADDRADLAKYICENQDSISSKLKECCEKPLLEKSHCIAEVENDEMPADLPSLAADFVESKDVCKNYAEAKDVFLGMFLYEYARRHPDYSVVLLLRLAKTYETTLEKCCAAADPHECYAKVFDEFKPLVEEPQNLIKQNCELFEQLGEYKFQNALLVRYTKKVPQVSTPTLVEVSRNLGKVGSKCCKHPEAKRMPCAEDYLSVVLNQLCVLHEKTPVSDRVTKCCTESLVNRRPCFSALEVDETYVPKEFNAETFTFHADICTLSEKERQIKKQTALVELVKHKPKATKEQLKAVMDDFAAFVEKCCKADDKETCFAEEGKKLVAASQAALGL
# Experimental: The fluorescence excitation and emission spectra of increasing CPT concentrations (0 to 3 × 10^−4 M) with a constant HSA concentration (2.0 × 10^−6 M) were acquired at 37.0 ± 0.1 °C (Perkin-Elmer LS-50B spectrofluorimeter, Waltham, USA), with excitation at 280 nm and emission at 342 nm, each with 5 nm slits. The following binding isotherm equation can be used to explain the quenching of HSA fluorescence caused by increasing CPT concentrations:(6) % Quenching=ymáx·n/1+Kdiss/[CPT] where ymax is the maximum fluorescence quenching measured, n is the number of binding sites of HSA to CPT, and Kdiss is the dissociation constant (i.e., the inverse of binding constant, Kbind). In addition, the following equation expresses the relationship between the Kdiss value and the Gibbs free energy ( Δ G) of complex binding:(7) ΔGbind=[…] where R is the ideal gas constant and T is the temperature in Kelvin (K).
# [9] = set-up: method as in PMID 30654016; settings: at lower concentrations (5 µM); ref [38]; cited from earlier work
# BSA = tested on: BSA; set-up: method as in Li et al. [17]; settings: ref Li et al. [17]; cited from earlier work
# [10] = Distribution coefficient in membrane/aqueous system, BBB membrane model; assay type: physicochemical; settings: BBB endothelial membrane, pH 7.4, derivative spectroscopy
# Source text: Single-lipid liposomal membrane models composed of DMPC, or lipid mixture liposomal membrane models mimetic of breast cancer cell membrane—DOPC (25%), CHOL (15%), EPC (31.8%), DOPS (17%), DOPE (8%), cardiolipin (2.5%) and SM (0.7%)—mimetic of cell membrane—DOPC (45%), DOPE (20%), DOPS (20%), CHOL (10%), and SM (10%)—and, blood–brain barrier (BBB) membrane constituted by the BPL—phosphocholine (PC) (12.6%), phosphatidyl ethanolamine (PE) (33.1%), PI (4.1%), phosphatidyl serine (PS) (18.5%), and PA (0.8%) were prepared by the classical thin film hydration method. […]
# The distribution coefficient (LogD) of CPT between membrane and aqueous buffered solution (pH 5.8 for breast cancer cell membrane model and pH 7.4 for cell membrane model and BBB membrane model) was determined by fluorescence spectroscopy and derivative UV-Vis spectroscopy. […] The samples contained a fixed concentration of CPT (2 × 10^−5M) and increasing concentrations of lipid suspension (0 to 1 × 10^−3 M for absorbance or 3 × 10^−3 M for fluorescence). […] The fluorescence spectra were also measured on a Perkin-Elmer LS-50B spectrofluorimeter. The emission spectra were obtained in 380–480 nm range with λexcitation = 250 nm and the excitation spectra were recorded in 220–400 nm range with λemission = 430 nm. […]
# [11] = set-up: method as in PMID 30869853, PMID 21430952; settings: DMPC or DMPG, pH 7.4, fluorescence anisotropy; ref [16],[45],[46]; cited from earlier work
# [12] = fluorescence spectroscopy, ref [18],[47],[48] (table), [18],[49],[50]; cited from earlier work
# C26 colon carcinomas = tested on: C26 colon carcinomas; set-up: method as in PMID 18384903; settings: 2.5 mg∙Kg^−1 dose of CPT; ref [79]; cited from earlier work
# [13] = Distribution coefficient in membrane/aqueous system, cancer cell membrane model; assay type: physicochemical; settings: for LogD: cancer cells membranes, 37 °C
# Source text: as §7, §8, §9
smiles,measurement,setting,value
"CC[C@@]1(O)C(=O)OCc2c1cc1n(c2=O)Cc2cc3ccccc3nc2-1 [CPT, Camptothecin]",LogD,[1],1.55 ± 0.05
same,LogD,[2],1.97 ± 0.05
same,adipose storage index (ASI),"[3]; Equation (10), from logD",2.53 ± 0.12
same,LogBB (brain accumulation index),"[3]; Equation (11), from logD in BBB endothelial membrane",2.76 ± 0.06
same,predicted off-target distribution / bioaccumulation,"[3]; adrenal glands, from logD in normal cell membrane model",61.44%
same,free drug available for distribution to the tissues,[3]; from PPB,8.05%
same,predicted off-target distribution / bioaccumulation,[3]; heart,3.07%
same,fraction unbound,"[3]; human, plasma (calculated from PPB), Equation (13), read-out: unbound fraction in plasma fu",0.081
same,fraction unbound,"[3]; human, tissues (predicted), Equation (15), read-out: unbound fraction in tissues fut",0.0054
same,Vd,"[3]; human, Equation (12), from in vitro logD and PPB, read-out: VDSS (steady-state volume of distribution)",5.75 ± 0.932 L/kg
same,predicted off-target distribution / bioaccumulation,[3]; kidneys,3.07%
same,predicted off-target distribution / bioaccumulation,[3]; thyroid,30.72%
same,fraction unbound,HSA [4],0.0805
same,CPT lactone form remaining,[5],5%
same,Vd,[6],5.16 ± 1.25 L/kg
same,average logD,[7]; average over normal and cancer cell membrane models and both methods,2.89 ± 0.23
same,LogD,"[7]; pH 7.4, derivative UV-Vis spectroscopy",2.78 ± 0.28 ^ns
same,LogD,"[7]; pH 7.4, fluorescence spectroscopy",2.63 ± 0.15 ^ns
same,Kd,"HSA [8]; HSA 2.0 × 10^−6 M, 37 °C, read-out: dissociation constant Kdiss",65.7 µM
same,binding constant Kbind,"HSA [8]; HSA, 37 °C",1.52 ± 0.26 × 10^4 M^−1
same,number of binding sites n,"HSA [8]; HSA, 37 °C",1
same,Gibbs free energy ΔGbind,"HSA [8]; HSA, Equation (7)",-5.93 ± 0.10 kcal/mol
same,Papp,[9],30 ×10⁻⁶ cm/s
same,binding constant Kbind with BSA,BSA,37200 M⁻¹
same,LogD,[10],3.64 ± 0.15
same,LogD,[11],2.00 ± 0.16
same,LogD / logP in octanol:water,[12],1.73 ± 0.08
same,AUC (blood plasma),C26 colon carcinomas,1100 ng·h/mL
same,LogD,"[13]; pH 5.8, derivative UV-Vis spectroscopy",3.14 ± 0.13 ^ns
same,LogD,"[13]; pH 5.8, fluorescence spectroscopy",3.01 ± 0.31 ^ns
same,logD in the cancer cell membrane model,"[13]; mean of the two methods, pH 5.8",3.08 ± 0.22
